≈ marks a conversion by molar mass, not a printed value. Some results are limits rather than exact numbers.

Series [1] can be described thus: Aqueous solubility of compound in PBS measured after 1 to 24 hrs. The format is physicochemical. The conditions noted are these: time 1-24 hrs.
A short description of series [2]: Cmin in C57BL/6 mouse at 50 mg/kg, sc administered as single dose ever day measured after 24 hrs by HPLC-MS/MS analysis. The format is ADME, organism-based. The conditions noted are these: in vivo, read-out: Cmin.
Series [3] can be described thus: Oral bioavailability in C57BL/6 mouse at 50 mg/kg administered as single dose measured after 24 hrs by HPLC-MS/MS analysis. In kind it is ADME, organism-based. The conditions noted are these: in vivo.
Series [4] is described as follows: Metabolic stability in human liver S9 fraction assessed as half life measured upto 60 mins in presence of NADPH by LC-MS/MS analysis. In kind it is ADME, subcellular. The conditions noted are these: liver S9 fraction.
The nature of series [5]: Cmax in C57BL/6 mouse at 50 mg/kg, sc administered as single dose ever day measured after 2 hrs by HPLC-MS/MS analysis. Also on record: dose 50 mg/kg, time 2 hrs, route sc. The settings on record: in vivo. In kind it is ADME, organism-based.
The nature of series [6]: Metabolic stability in mouse liver S9 fraction assessed as half life measured upto 60 mins in presence of NADPH by LC-MS/MS analysis. In kind it is ADME, subcellular. The conditions noted are these: liver S9 fraction.
For another series, the system named is HepG2. In words: Cytotoxicity against human HepG2 cells assessed as cell growth inhibition by measuring lethal concentration measured after 48 hrs by MTT assay. In kind it is functional. (In general: Tetrazolium dyes change colour on reduction, which living cells bring about.)
For series [7], the target named is T1, 17-beta-hydroxysteroid dehydrogenase type 2 (Homo sapiens, UniProt P37059).
T1 sequence (P37059 whole entry): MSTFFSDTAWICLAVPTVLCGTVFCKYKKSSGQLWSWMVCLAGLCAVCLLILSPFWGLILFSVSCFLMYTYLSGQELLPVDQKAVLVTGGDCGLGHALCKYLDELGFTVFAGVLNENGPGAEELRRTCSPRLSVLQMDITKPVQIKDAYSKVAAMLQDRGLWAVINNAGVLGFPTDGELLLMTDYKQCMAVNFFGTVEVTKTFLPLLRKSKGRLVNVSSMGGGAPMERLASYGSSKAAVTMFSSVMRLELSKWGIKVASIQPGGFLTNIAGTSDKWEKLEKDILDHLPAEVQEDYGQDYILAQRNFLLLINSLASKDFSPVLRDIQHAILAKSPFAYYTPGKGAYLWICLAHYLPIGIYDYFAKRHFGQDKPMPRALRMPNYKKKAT
Description: Inhibition of human placental microsomal fraction 17beta-HSD2 using [3H]E2 as substrate measured after 20 mins in presence of NAD+ by HPLC analysis. In kind it is microsomes, Placenta, Microsome.

Series [8] concerns the target T2, 17-beta-hydroxysteroid dehydrogenase type 1 (Homo sapiens, UniProt P14061).
T2 sequence (P14061 whole entry): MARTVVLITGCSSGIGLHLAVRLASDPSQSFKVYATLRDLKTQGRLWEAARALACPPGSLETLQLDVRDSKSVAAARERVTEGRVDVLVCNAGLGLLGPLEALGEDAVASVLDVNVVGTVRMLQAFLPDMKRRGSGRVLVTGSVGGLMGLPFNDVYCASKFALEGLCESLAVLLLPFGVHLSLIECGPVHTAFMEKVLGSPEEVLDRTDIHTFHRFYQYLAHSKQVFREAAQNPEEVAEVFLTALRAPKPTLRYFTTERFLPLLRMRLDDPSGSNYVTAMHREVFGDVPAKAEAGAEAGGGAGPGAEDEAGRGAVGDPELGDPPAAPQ
Description: Inhibition of human 17beta-HSD1 expressed in human T47D cells using [3H]E1 as substrate incubated for 1 hr followed by substrate addition measured after 40 mins in presence of E1 by HPLC analysis. In kind it is cell-based.

Series [9] in a line: Metabolic stability in human liver S9 fraction assessed as intrinsic clearance measured upto 60 mins in presence of NADPH by LC-MS/MS analysis. The format is ADME, subcellular. The settings on record: read-out: CLH.
A short description of series [10]: Drug concentration in C57BL/6 mouse at 50 mg/kg, sc administered as single dose measured after 24 hrs by HPLC-MS/MS analysis. In kind it is ADME, organism-based. The settings on record: in vivo, read-out: Drug uptake.
Series [11] is described as follows: Half life in C57BL/6 mouse at 50 mg/kg, sc administered as single dose measured after 24 hrs by HPLC-MS/MS analysis. The format is ADME, organism-based. The settings on record: in vivo.
The test system of the next series is HEK293. Description: Cytotoxicity against HEK293 cells assessed as cell growth inhibition by measuring lethal concentration measured after 72 hrs by MTT assay. In kind it is functional, Homo sapiens.
Series [12] concerns the target T3, Steryl-sulfatase (Homo sapiens, UniProt P08842).
T3 sequence (P08842 whole entry): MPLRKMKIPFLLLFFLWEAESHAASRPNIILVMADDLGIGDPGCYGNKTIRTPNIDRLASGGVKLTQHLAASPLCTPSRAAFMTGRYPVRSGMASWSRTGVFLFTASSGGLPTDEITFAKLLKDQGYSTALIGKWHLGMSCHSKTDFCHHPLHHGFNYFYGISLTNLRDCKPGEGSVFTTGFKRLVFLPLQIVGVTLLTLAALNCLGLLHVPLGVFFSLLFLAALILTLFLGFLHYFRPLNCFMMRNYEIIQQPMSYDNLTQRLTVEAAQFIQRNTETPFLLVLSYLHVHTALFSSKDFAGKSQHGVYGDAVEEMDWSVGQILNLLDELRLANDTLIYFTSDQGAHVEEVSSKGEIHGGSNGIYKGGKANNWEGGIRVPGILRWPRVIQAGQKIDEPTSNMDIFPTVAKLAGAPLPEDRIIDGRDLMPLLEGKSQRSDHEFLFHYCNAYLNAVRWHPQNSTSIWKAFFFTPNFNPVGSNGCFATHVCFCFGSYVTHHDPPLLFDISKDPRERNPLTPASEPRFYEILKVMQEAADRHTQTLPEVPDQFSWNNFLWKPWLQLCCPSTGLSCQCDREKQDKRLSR
In words: Irreversible inhibition of human STS expressed in human T47D cells using [3H]E1S as substrate preincubated for 2 hr followed by substrate addition measured after 24 hrs in presence of E1S by HPLC analysis. In kind it is cell-based.

For series [13], the target named is T2, 17-beta-hydroxysteroid dehydrogenase type 1. Description: Inhibition of human placental cytosolic fraction 17beta-HSD1 using [3H]E1 as substrate measured after 10 mins in presence of NADH by HPLC analysis. In kind it is tissue-based, Placenta.
The target of series [14] is T4, Aryl hydrocarbon receptor (Homo sapiens, UniProt P35869).
T4 sequence (P35869 whole entry): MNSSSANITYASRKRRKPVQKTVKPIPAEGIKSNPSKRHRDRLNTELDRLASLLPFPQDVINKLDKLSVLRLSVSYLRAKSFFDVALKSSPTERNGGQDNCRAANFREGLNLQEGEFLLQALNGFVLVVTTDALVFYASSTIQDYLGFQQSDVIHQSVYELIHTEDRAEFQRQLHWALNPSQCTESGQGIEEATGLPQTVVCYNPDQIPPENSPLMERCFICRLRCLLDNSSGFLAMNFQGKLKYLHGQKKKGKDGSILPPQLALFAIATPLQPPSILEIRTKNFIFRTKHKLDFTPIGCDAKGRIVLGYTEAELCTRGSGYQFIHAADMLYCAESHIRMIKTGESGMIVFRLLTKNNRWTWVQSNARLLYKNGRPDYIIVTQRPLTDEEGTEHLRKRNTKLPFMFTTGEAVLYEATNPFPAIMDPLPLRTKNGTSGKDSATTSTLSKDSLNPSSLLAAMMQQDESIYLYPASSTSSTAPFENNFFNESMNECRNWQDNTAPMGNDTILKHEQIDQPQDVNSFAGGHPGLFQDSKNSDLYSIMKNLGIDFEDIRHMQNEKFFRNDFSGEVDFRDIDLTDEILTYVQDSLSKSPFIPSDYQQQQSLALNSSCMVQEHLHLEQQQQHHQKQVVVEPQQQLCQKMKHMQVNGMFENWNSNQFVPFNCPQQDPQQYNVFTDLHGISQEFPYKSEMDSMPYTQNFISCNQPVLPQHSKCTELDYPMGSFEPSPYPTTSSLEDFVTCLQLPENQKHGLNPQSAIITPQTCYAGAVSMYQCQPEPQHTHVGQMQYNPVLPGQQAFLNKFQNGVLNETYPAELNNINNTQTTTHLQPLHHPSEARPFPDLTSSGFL
In words: Activation of AhR in human HepG2 cells assessed as increase in CYP1A1 activity at 3.16 uM measured after 48 hrs by fluorescence based analysis. The format is cell-based. The conditions noted are these: hepg2, 48 h.

Series [15] can be described thus: Observed Cmax in C57BL/6 mouse at 50 mg/kg, sc administered as single dose measured upto 24 hrs by HPLC-MS/MS analysis. The settings on record: in vivo. Also noted: time < 24 hrs, dose 50 mg/kg, route sc. In kind it is ADME, organism-based.
Series [16] can be described thus: AUC(0 to 24 hrs) in C57BL/6 mouse at 50 mg/kg, sc administered as single dose measured after 24 hrs by HPLC-MS/MS analysis. The format is ADME, organism-based. Also on record: time 24 hrs, dose 50 mg/kg, route sc. The settings on record: in vivo.
The species entered for a further series is Homo sapiens. In words: Selectivity ratio of IC50 for human placental microsomal fraction 17beta-HSD2 to IC50 for human placental microsomal fraction 17beta-HSD1.
The nature of series [17]: Lipophilicity, logD of compound at pH 7.4. In kind it is physicochemical. The conditions noted are these: buffer.
Series [18] has as its target T3, Steryl-sulfatase. Description: Inhibition of human STS expressed in human T47D cells using [3H]E1S as substrate incubated for 1 hr followed by substrate addition measured after 24 hrs in presence of E1S by HPLC analysis. In kind it is cell-based.

`Cc1cc(OS(N)(=O)=O)ccc1N(C)C(=O)c1ccc(-c2cc(C)c(O)c(C)c2)o1`: the concentration in solution in series [1] (solubility) came to 40 µM (≈ 17.2 µg/mL). Further, the concentration at 24 h in series [2] turned out to be 800 nM; in series [10] it was 797 nM. Besides, the bioavailability (in general, dose-corrected exposure relative to a reference, in per cent) in series [3] was determined as 1.5%. The results for the half-life in series [4], in [6] and in series [11] were 1.42 h, 0.935 h and 3.82 h, respectively. In addition, the Cmax (as a rule, the maximum level reached in the sampled fluid or tissue) amounted to 2350 nM in series [5] and 2820 nM in series [15]. Besides, the LC20 is 23000 nM in the series with HepG2 and “<=31 uM” in the series on HEK293. Moreover, the IC50 (as a rule, the concentration at which inhibition is half-maximal) was found to be 6200 nM in series [7]; 11 nM in series [8]; 420 nM at Steryl-sulfatase [12]; 43 nM in [13]; 400 nM at Steryl-sulfatase [18]. In [9], the microsomal CLint turned out to be 8.2 µL/min/mg. Further, in series [14], the Activity result was “Not Active”. Also, in series [16], the AUC(0-t) (usually the area under the concentration-time curve up to a stated or last time point) at 24 h came out at 11600 ng·h/mL. Moreover, the Ratio IC50 in the series filed under Homo sapiens was determined as 145. In addition, the log distribution coefficient (logD) (commonly the decadic logarithm of the distribution of all forms, ionised or not, between an organic phase and buffer at a given pH) in [17] turned out to be 2.2.
